Data taken from PubChem BioAssay (NCI).
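GI50 is the concentration that inhibits growth by half. TGI: concentration producing complete growth inhibition.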

Legend:
Test in all cases: growth of human tumour cells (NCI), 384-well format
786-0 renal = test system: 786-0 renal
A498 renal = test system: A498 renal
A549 NSCLC = test system: A549 NSCLC
ACHN renal = test system: ACHN renal
BT-549 breast = test system: BT-549 breast
CAKI-1 renal = test system: CAKI-1 renal
CCRF-CEM leukemia = test system: CCRF-CEM leukemia
COLO 205 colon = test system: COLO 205 colon
DU-145 prostate = test system: DU-145 prostate
EKVX NSCLC = test system: EKVX NSCLC
HCC-2998 colon = test system: HCC-2998 colon
HCT-116 colon = test system: HCT-116 colon
HCT-15 colon = test system: HCT-15 colon
HL-60(TB) leukemia = test system: HL-60(TB) leukemia
HOP-62 NSCLC = test system: HOP-62 NSCLC
HOP-92 NSCLC = test system: HOP-92 NSCLC
HS 578T breast = test system: HS 578T breast
HT29 colon = test system: HT29 colon
IGROV1 ovarian = test system: IGROV1 ovarian
K-562 leukemia = test system: K-562 leukemia
KM12 colon = test system: KM12 colon
LOX IMVI melanoma = test system: LOX IMVI melanoma
M14 melanoma = test system: M14 melanoma
MALME-3M melanoma = test system: MALME-3M melanoma
MCF7 breast = test system: MCF7 breast
MDA-MB-231 breast = test system: MDA-MB-231 breast
MDA-MB-435 melanoma = test system: MDA-MB-435 melanoma
MDA-MB-468 breast = test system: MDA-MB-468 breast
MOLT-4 leukemia = test system: MOLT-4 leukemia
NCI-H226 lung = test system: NCI-H226 lung
NCI-H23 lung = test system: NCI-H23 lung
NCI-H322M lung = test system: NCI-H322M lung
NCI-H460 NSCLC = test system: NCI-H460 NSCLC
NCI-H522 lung = test system: NCI-H522 lung
NCI/ADR-RES ovarian = test system: NCI/ADR-RES ovarian
OVCAR-3 ovarian = test system: OVCAR-3 ovarian
OVCAR-4 ovarian = test system: OVCAR-4 ovarian
OVCAR-5 ovarian = test system: OVCAR-5 ovarian
OVCAR-8 ovarian = test system: OVCAR-8 ovarian
PC-3 prostate = test system: PC-3 prostate
RPMI-8226 leukemia = test system: RPMI-8226 leukemia
RXF 393 renal = test system: RXF 393 renal
SF-268 CNS = test system: SF-268 CNS
SF-295 CNS = test system: SF-295 CNS
SF-539 CNS = test system: SF-539 CNS
SK-MEL-28 melanoma = test system: SK-MEL-28 melanoma
SK-MEL-5 melanoma = test system: SK-MEL-5 melanoma
SK-OV-3 ovarian = test system: SK-OV-3 ovarian
SN12C renal = test system: SN12C renal
SNB-19 CNS = test system: SNB-19 CNS
SNB-75 CNS = test system: SNB-75 CNS
SW-620 colon = test system: SW-620 colon
T-47D breast = test system: T-47D breast
TK-10 renal = test system: TK-10 renal
U251 glioblastoma = test system: U251 glioblastoma
UACC-257 melanoma = test system: UACC-257 melanoma
UACC-62 melanoma = test system: UACC-62 melanoma
UO-31 renal = test system: UO-31 renal

Cc1nnn(C)c1-c1cnc2c3ccc(C(C)(C)O)cc3n([C@H](c3ccccc3)C3CCOCC3)c2c1
GI50 ([…]-0 renal): 15 nM
TGI (786-0 renal): 11700 nM
GI50 (A498 renal): < 10 nM
TGI (A498 renal): 10700 nM
GI50 (A549 NSCLC): < 10 nM
TGI (A549 NSCLC): 13000 nM
GI50 (ACHN renal): 44.5 nM
TGI (ACHN renal): 12200 nM
GI50 (BT-549 breast): < 10 nM
TGI (BT-549 breast): 72.7 nM
GI50 (CAKI-1 renal): < 10 nM
TGI (CAKI-1 renal): 3960 nM
GI50 (CCRF-CEM leukemia): < 10 nM
TGI (CCRF-CEM leukemia): 1420 nM
GI50 (COLO 205 colon): < 10 nM
TGI (COLO 205 colon): 331 nM
GI50 (DU-145 prostate): 753 nM
TGI (DU-145 prostate): 22100 nM
GI50 (EKVX NSCLC): 3190 nM
TGI (EKVX NSCLC): 21600 nM
GI50 (HCC-2998 colon): < 10 nM
TGI (HCC-2998 colon): 49.7 nM
GI50 (HCT-116 colon): 24.2 nM
TGI (HCT-116 colon): 12800 nM
GI50 (HCT-15 colon): 13.9 nM
TGI (HCT-15 colon): 1320 nM
GI50 (HL-60(TB) leukemia): < 10 nM
GI50 (HOP-62 NSCLC): < 10 nM
TGI (HOP-62 NSCLC): 2770 nM
GI50 (HOP-92 NSCLC): 25.3 nM
TGI (HOP-92 NSCLC): 14500 nM
GI50 (HS 578T breast): < 10 nM
TGI (HS 578T breast): 758 nM
GI50 (HT29 colon): < 10 nM
TGI (HT29 colon): 15100 nM
GI50 (IGROV1 ovarian): < 10 nM
TGI (IGROV1 ovarian): 1360 nM
GI50 (K-562 leukemia): < 10 nM
TGI (K-562 leukemia): 13800 nM
GI50 (KM12 colon): < 10 nM
TGI (KM12 colon): 10800 nM
GI50 (LOX IMVI melanoma): < 10 nM
TGI (LOX IMVI melanoma): 11.3 nM
GI50 (M14 melanoma): < 10 nM
TGI (M14 melanoma): 15700 nM
GI50 (MALME-3M melanoma): < 10 nM
TGI (MALME-3M melanoma): 268 nM
GI50 (MCF7 breast): < 10 nM
TGI (MCF7 breast): 435 nM
GI50 (MDA-MB-231 breast): < 10 nM
TGI (MDA-MB-231 breast): 11800 nM
GI50 (MDA-MB-435 melanoma): 43.1 nM
TGI (MDA-MB-435 melanoma): 61700 nM
GI50 (MDA-MB-468 breast): < 10 nM
TGI (MDA-MB-468 breast): 1220 nM
GI50 (MOLT-4 leukemia): < 10 nM
TGI (MOLT-4 leukemia): 211 nM
GI50 (NCI-H226 lung): < 10 nM
TGI (NCI-H226 lung): 10300 nM
GI50 (NCI-H23 lung): < 10 nM
TGI (NCI-H23 lung): 3350 nM
GI50 (NCI-H322M lung): 19 nM
TGI (NCI-H322M lung): 17500 nM
GI50 (NCI-H460 NSCLC): 354 nM
TGI (NCI-H460 NSCLC): 15600 nM
GI50 (NCI-H522 lung): < 10 nM
TGI (NCI-H522 lung): 10.6 nM
GI50 (NCI/ADR-RES ovarian): 197 nM
TGI (NCI/ADR-RES ovarian): 8560 nM
GI50 (OVCAR-3 ovarian): < 10 nM
TGI (OVCAR-3 ovarian): 1710 nM
GI50 (OVCAR-4 ovarian): < 10 nM
TGI (OVCAR-4 ovarian): 21.2 nM
GI50 (OVCAR-5 ovarian): < 10 nM
TGI (OVCAR-5 ovarian): 12600 nM
GI50 (OVCAR-8 ovarian): < 10 nM
TGI (OVCAR-8 ovarian): 1300 nM
GI50 (PC-3 prostate): < 10 nM
TGI (PC-3 prostate): 25000 nM
GI50 (RPMI-8226 leukemia): < 10 nM
GI50 (RXF 393 renal): < 10 nM
TGI (RXF 393 renal): 155 nM
GI50 (SF-268 CNS): 79.3 nM
TGI (SF-268 CNS): 16800 nM
GI50 (SF-295 CNS): 380 nM
TGI (SF-295 CNS): 17000 nM
GI50 (SF-539 CNS): 10.3 nM
TGI (SF-539 CNS): 54.3 nM
GI50 (SK-MEL-28 melanoma): 89.9 nM
TGI (SK-MEL-28 melanoma): 24200 nM
GI50 (SK-MEL-5 melanoma): < 10 nM
TGI (SK-MEL-5 melanoma): 1110 nM
GI50 (SK-OV-3 ovarian): < 10 nM
TGI (SK-OV-3 ovarian): 1450 nM
GI50 (SN12C renal): 1210 nM
TGI (SN12C renal): 20600 nM
GI50 (SNB-19 CNS): 32 nM
TGI (SNB-19 CNS): 20300 nM
GI50 (SNB-75 CNS): 299 nM
TGI (SNB-75 CNS): 14000 nM
GI50 (SW-620 colon): 1740 nM
TGI (SW-620 colon): 17400 nM
GI50 (T-47D breast): 13.7 nM
TGI (T-47D breast): 11100 nM
GI50 (TK-10 renal): < 10 nM
TGI (TK-10 renal): 90.8 nM
GI50 (U251 glioblastoma): 315 nM
TGI (U251 glioblastoma): 12700 nM
GI50 (UACC-257 melanoma): < 10 nM
TGI (UACC-257 melanoma): 5550 nM
GI50 (UACC-62 melanoma): < 10 nM
TGI (UACC-62 melanoma): 146 nM
GI50 (UO-31 renal): 13.2 nM
TGI (UO-31 renal): 13400 nM
